Assay results published in publication PMC7075649 (Journal of Medicinal Chemistry, 2019).
pEC50: −log10 of the molar value. Entries after “also recorded” stand apart in the source; their conditions may differ.

What was measured:
ZIKV = experiment: microbe, parasite or virus in culture; format: cell-based; details: Zika virus, read-out: ZIKV EC50
AK^+ and AK^– cells = details: cited from earlier work
CHIKV = format: cell-based, chikungunya virus
Vero cells = details: African green monkey
+RNA viruses = format: cell-based
[1] = biological target: recombinant human SAH hydrolase (Homo sapiens, UniProt P23526); format: biochemical
recombinant human SAH hydrolase, sequence (P23526 whole entry): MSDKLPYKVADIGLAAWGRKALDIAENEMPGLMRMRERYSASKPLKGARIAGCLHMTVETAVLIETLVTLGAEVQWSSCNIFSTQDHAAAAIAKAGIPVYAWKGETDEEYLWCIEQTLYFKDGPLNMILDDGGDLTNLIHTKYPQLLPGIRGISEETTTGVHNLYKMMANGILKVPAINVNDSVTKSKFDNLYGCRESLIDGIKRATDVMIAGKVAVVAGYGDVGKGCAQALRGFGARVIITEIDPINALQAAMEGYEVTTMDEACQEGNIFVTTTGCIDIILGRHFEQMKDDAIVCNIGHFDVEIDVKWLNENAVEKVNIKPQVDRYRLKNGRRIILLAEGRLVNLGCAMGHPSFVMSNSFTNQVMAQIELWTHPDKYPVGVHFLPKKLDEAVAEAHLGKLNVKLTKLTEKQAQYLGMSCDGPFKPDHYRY

## O=c1ccn([C@H]2[C@H](O)[C@H](O)[C@@H](CO)[C@H]2F)c(=O)[nH]1 [Compound 2f, 1-((1S,2R,3R,4R,5S)-2-Fluoro-4,5-dihydroxy-3-(hydroxymethyl)cyclopentyl)pyrimidine-2,4(1H,3H)-dione]
ZIKV
  pEC50: < 4.00

## Nc1ncnc2c1ncn2[C@@H]1C[C@H](CO)[C@@H](O)[C@H]1O [Compound 1, (−)-Aristeromycin]
AK^+ and AK^– cells
  toxicity in AK^+ and AK^– cells: toxic at low concentrations

## Nc1ncnc2c1ncn2[C@H]1[C@H](O)[C@H](O)[C@@H](CO)C1(F)F [Compound 2c, (1R,2S,3S,5R)-3-(6-Amino-9H-purin-9-yl)-4,4-difluoro-5-(hydroxymethyl)cyclopentane-1,2-diol]
CHIKV
  reduction of infectious CHIKV titers: more than 2 log
Vero cells
  reduction in cytotoxicity versus 2a: > 5 fold

## O=c1ccn([C@H]2[C@H](O)[C@H](O)[C@@H](CO)[C@@H]2F)c(=O)[nH]1 [Compound 2g, 1-((1S,2S,3R,4R,5S)-2-Fluoro-4,5-dihydroxy-3-(hydroxymethyl)cyclopentyl)pyrimidine-2,4(1H,3H)-dione]
ZIKV
  pEC50: < 4.00

## CNc1ncnc2c1ncn2[C@H]1[C@H](O)[C@H](O)[C@@H](CO)C1(F)F [Compound 2e, (1S,2R,3R,5S)-4,4-Difluoro-3-(hydroxymethyl)-5-(6-(methylamino)-9H-purin-9-yl)cyclopentane-1,2-diol]
+RNA viruses
  antiviral activity against +RNA viruses (in words): did not show significant antiviral activities

## CNc1ncnc2c1ncn2[C@H]1[C@H](O)[C@H](O)[C@@H](CO)[C@H]1F [Compound 2d, (1S,2R,3R,4R,5S)-4-Fluoro-3-(hydroxymethyl)-5-(6-(methylamino)-9H-purin-9-yl)cyclopentane-1,2-diol]
[1]
  SAH hydrolase inhibitory activity, fold decrease versus 2a: 11.9 fold
+RNA viruses
  antiviral activity against +RNA viruses (in words): did not show significant antiviral activities

## CC(C)OC(=O)[C@H](C)N[P@](=O)(OC[C@@H]1[C@@H](O)[C@@H](O)[C@H](n2cnc3c(N)ncnc32)C1(F)F)Oc1ccccc1 [Compound 3a, Iso-propyl ((S)-(((1R,3S,4S,5R)-3-(6-Amino-9H-purin-9-yl)-2,2-difluoro-4,5-dihydroxycyclopentyl)methoxy)(phenoxy)phosphoryl)-L-alaninate]
+RNA viruses
  antiviral activity against +RNA viruses (in words): potent broad-spectrum antiviral activity; also recorded: exhibited significant broad-spectrum antiviral activities
